In patent publication US12472193B2, “Methods and compositions for treating and preventing respiratory related diseases and conditions with xylitol-headgroup lipid analogs” (National Jewish Health, priority 2017, dated 2025):
Entries after “also recorded” stand apart in the source; their conditions may differ.

What was measured:
TLR 9 = target: T1, TLR 9 (Mus musculus, UniProt Q9EQU3); assay: CpG-induced TNFα secretion by RAW264.7 cells (TLR 9 antagonism); format: cell-based; settings: for antagonism of TLR 9 activation (TNFα secretion): 5 μg/mL CpG, 100 μg/mL phospholipid, 5.5 hours; for TLR9 antagonist activity: reduction in cytokine secretion vs activating TLR ligand alone
T1 construct: RAW264.7 cells secrete TNF-α in response to the TLR9 agonist CpG; endogenous in cells; host or cells: RAW264.7 (ATCC)
T1 sequence (Q9EQU3 26-1032): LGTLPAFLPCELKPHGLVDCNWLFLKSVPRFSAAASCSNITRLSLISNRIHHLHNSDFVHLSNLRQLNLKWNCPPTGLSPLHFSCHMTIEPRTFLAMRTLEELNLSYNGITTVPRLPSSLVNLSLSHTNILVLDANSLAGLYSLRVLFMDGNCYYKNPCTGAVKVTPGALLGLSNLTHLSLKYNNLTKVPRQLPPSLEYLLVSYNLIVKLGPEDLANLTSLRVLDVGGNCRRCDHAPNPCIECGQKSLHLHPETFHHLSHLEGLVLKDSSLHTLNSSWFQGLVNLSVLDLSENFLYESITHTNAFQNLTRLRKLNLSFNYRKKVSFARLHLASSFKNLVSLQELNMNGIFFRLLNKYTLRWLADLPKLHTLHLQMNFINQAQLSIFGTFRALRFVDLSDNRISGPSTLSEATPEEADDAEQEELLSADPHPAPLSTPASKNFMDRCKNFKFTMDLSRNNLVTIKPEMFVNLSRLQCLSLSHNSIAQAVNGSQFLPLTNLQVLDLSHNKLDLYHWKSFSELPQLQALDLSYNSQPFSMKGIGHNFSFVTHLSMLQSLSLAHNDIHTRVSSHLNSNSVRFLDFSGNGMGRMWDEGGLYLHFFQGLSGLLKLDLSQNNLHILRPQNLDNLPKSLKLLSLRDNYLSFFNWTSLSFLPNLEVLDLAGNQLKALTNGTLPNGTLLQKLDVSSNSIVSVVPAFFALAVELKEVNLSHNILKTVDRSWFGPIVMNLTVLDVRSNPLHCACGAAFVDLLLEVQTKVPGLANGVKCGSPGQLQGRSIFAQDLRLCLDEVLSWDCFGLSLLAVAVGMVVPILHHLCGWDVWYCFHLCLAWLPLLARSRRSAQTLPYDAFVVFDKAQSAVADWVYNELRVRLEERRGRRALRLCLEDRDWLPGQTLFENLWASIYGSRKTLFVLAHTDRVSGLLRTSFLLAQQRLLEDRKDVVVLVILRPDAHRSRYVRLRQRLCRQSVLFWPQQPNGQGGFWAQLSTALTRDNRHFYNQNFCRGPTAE
Protocol: The mouse macrophage cell line, RAW264.7, was obtained from ATCC and maintained in DMEM, supplemented with 10% bovine growth serum and 1× penicillin streptomycin. Cells were maintained at 37° C. with 5% carbon dioxide: 95% air atmosphere within the incubator. Experiments were completed in a 96-well plate where cells were seated at a density of 1×10^5 cells per well, 24 prior to stimulation with TLR agonists and antagonists. Lipids were dried under a stream of nitrogen, hydrated with phosphate-buffered saline (PBS) at 37° C. for one hour, followed by water bath sonication to create liposomes. Each condition for cell stimulation and antagonism was prepared in DMEM in a separate tube and consisted of: control, TLR agonist, TLR agonist+lipid, and lipid alone. 100 μL aliquots of medium+agonists+antagonists were added to each well and incubated at 37° C. for 4 hours. Subsequently, the media were collected, diluted and an enzyme-linked immunosorbent assay (ELISA) was performed to quantify TNFα release by cells.
TLR 9 is another member of the intracellular TLRs found in the endosomal compartment. It detects unmethylated CpG sequences in DNA molecules commonly found among bacteria and DNA viruses (H. Hemmi, et al., “A Toll-like receptor recognizes bacterial DNA.,” Nature, vol. 408, no. 6813, pp. 740-5, December 2000; J. Lund, et al, “Toll-like receptor 9-mediated recognition of Herpes simplex virus-2 by plasmacytoid dendritic cells.,” J. Exp. Med., vol. 198, no. 3, pp. 513-20, August 2003). To test antagonism activity of PX lipids against TLR 9, RAW264.7 cells were stimulated for 5.5 hours with 5 μg/mL CpG in the absence or presence of 100 μg/mL phospholipid. […] The action of CpG is not affected by POPC, POPG, or many of the xylitol phospholipids, such as 14:0 DEPX, DSPX and 18:1 DEPX.

RSV = assay: Quantitative RSV plaque assay in HEp2 cells; format: cell-based, human RSV A2 strain; settings: for antiviral activity against RSV by plaque assay: 50 μg/mL lipid, HEp2, 37° C.
Protocol: Viral stocks were propagated in HEp2 cell monolayers using DMEM/Ham's F12 Medium (GIBCO), plus 5% bovine growth serum (Hyclone) with 1× penicillin streptomycin, and virus was purified using methods previously described [M. Numata, H. W. Chu, A. Dakhama, and D. R. Voelker, “Pulmonary surfactant phosphatidylglycerol inhibits respiratory syncytial virus-induced inflammation and infection.,” Proc. Natl. Acad. Sci. U.S.A., vol. 107, no. 1, pp. 320-5, 2010.]. Viral titers and growth were measured by plaque assays [J. L. McKimm-Breschkin, “A simplified plaque assay for respiratory syncytial virus—direct visualization of plaques without immunostaining,” 2004.]. The antiviral activity of xylitol-headgroup lipids was determined by in vitro RSV infection in the presence or absence of lipid and infectious particles were quantified by viral plaque assay. HEp2 cells were plated at a density of 1.8×10^6 per well in a 6 well plate 24 hours prior to infection in order to create a uniform monolayer. Cell monolayers were infected for 2 hours at 37° C. with serial dilutions of RSV alone and RSV in combination with 50 μg/mL of phospholipid. Following the 2-hour period of infection, the inoculum was removed and 3 mL of medium containing 0.3% agarose was added, allowed to solidify and placed in a 37° C. incubator for 6 days. On day 6 the cells were fixed overnight with formalin and then stained with a neutral red stain and viral plaques were quantified visually.
An optimized quantitative plaque assay (described for RSV by J. L. McKimm-Breschkin, “A simplified plaque assay for respiratory syncytial virus-direct visualization of plaques without immunostaining,” 2004) was applied to survey the ability of PX lipids to inhibit RSV infection. The human epithelial cell line, HEp2, was seeded at a density of 1.8×10^6 per well in a 6-well plate 24 hours in advance of infection. Reaction conditions for infection took place in serum-free medium and were combined before addition to cells. A standard dilution of virus alone was prepared and 50 μg/mL phospholipid in combination with RSV was also prepared. Cells were washed with PBS to remove any serum prior to infection and then 500 μL of virus in various combinations with lipids was added to each well and incubated at 37° C. for 2 hours. Plates were rotated every 20 minutes for even distribution of viral infection. After infection, the viral inoculum was removed and medium containing 0.3% agarose was added to each well and allowed to solidify then placed back into the incubator at 37° C. for 6 days. On day 6, cells were fixed overnight then the agarose layer was removed and wells were stained with neutral red and viral plaques counted. POPG is a known inhibitor of RSV infection in vitro and in vivo. […] Ester-linked saturated xylitol lipids composed the moderately effective antivirals. The sole xylitol analog that was determined ineffective was saturated and ether-linked.

| Structure (SMILES) | antagonism of TLR 9 activation (TNFα secretion) (TLR 9) | antiviral activity against RSV by plaque assay (RSV) | TLR9 antagonist activity (TLR 9) | reduction of RSV viral infection by a factor of (RSV; 50 μg/ml lipid, 10^4 infectious virus/ml, HEp2) |
| --- | --- | --- | --- | --- |
| CCCCCCCCC=CCCCCCCCCOCC(COP(=O)(O)OCC(O)C(O)C(O)CO)OCCCCCCCCC=CCCCCCCCC (mixture of isomers) [18:1 DEPX, sn-1-O-octadecenyl, sn-2-O-octadecenyl sn-3 glycerol phosphoxylitol] | not affected | inhibit infection and propagation of RSV |  |  |
| CCCCCCCCCCCCCC(=O)OC[C@H](COP(=O)(O)OCC(O)C(O)C(O)CO)OC(=O)CCCCCCCCCCCCC (mixture of isomers) [DMPX, sn-1-myristoyl, sn-2-myristoyl sn-3 glycerol phosphoxylitol] | acts as an agonist for TLR9 activation | moderate antiviral activity |  |  |
| CCCCCC=CCC=CCCCCCCCC(=O)OCC(COP(=O)(O)OCC(O)C(O)C(O)CO)OC(=O)CCCCCCCC=CCC=CCCCCC (mixture of isomers) [18:2 DLPX, sn-1-linoleoyl, sn-2-linoleoyl sn-3 glycerol phosphoxylitol] | effective against TLR 9 activation; also recorded: only effective antagonists of TLR 9 activation |  | + (cutoff being greater than a 50% reduction in cytokine secretion compared to activating TLR ligand alone) |  |
| CCCCCCCCC=CCCCCCCCC(=O)OCC(COP(=O)(O)OCC(O)C(O)C(O)CO)OC(=O)CCCCCCCC=CCCCCCCCC (mixture of isomers) [DOPX, sn-1-oleoyl, sn-2-oleoyl sn-3 glycerol phosphoxylitol] | reduce the TNF-α secretion to control levels; also recorded: inhibits; also recorded: effective against TLR 9 activation; also recorded: only effective antagonists of TLR 9 activation | inhibit infection and propagation of RSV | + (cutoff being greater than a 50% reduction in cytokine secretion compared to activating TLR ligand alone) |  |
| CCCCCCCC/C=C\CCCCCCCC(=O)O[C@H](COC(=O)CCCCCCCCCCCCCCC)COP(=O)(O)OCC(O)C(O)C(O)CO (some centres unmarked) [POPX, sn-1-palmitoyl, sn-2-oleoyly sn-3 glycerol phosphoxylitol] | reduce the TNF-α secretion to control levels; also recorded: inhibits; also recorded: effective against TLR 9 activation; also recorded: only effective antagonists of TLR 9 activation |  | + (cutoff being greater than a 50% reduction in cytokine secretion compared to activating TLR ligand alone) |  |
| CCCCCCCCCCCCCCCCCC(=O)OCC(COP(=O)(O)OCC(O)C(O)C(O)CO)OC(=O)CCCCCCCCCCCCCCCCC (centres unmarked) [DSPX, sn-1-stearoyl, sn-2-stearoyl sn-3 glycerol phosphoxylitol] | not affected | moderate antiviral activity |  |  |
| CCCCCCCCCCCCCCCC(=O)OCC(COP(=O)(O)OCC(O)C(O)C(O)CO)OC(=O)CCCCCCCCCCCCCCC (centres unmarked) [DPPX, sn-1-palmitoyl, sn-2-palmitoyl sn-3 glycerol phosphoxylitol] |  | moderate antiviral activity |  |  |
| CCCCCCCC/C=C\CCCCCCCC(=O)O[C@H](COC(=O)CCCCCCCCCCCCCCC)COP(=O)([O-])OCC[N+](C)(C)C [POPC, 1-palmitoyl-2-oleoyl-sn-glycero-3-phosphocholine, reference compound] | not affected | ineffective as an antiviral |  |  |
| CCCCCCCCCCCCCCOC[C@H](COP(=O)(O)OCC(O)C(O)C(O)CO)OCCCCCCCCCCCCCC (mixture of isomers) [14:0 DEPX, sn-1-O-myristyl, sn-2-O-myristyl sn-3 glycerol phosphoxylitol] | not affected | ineffective as an antiviral; also recorded: ineffective at preventing RSV infection; also recorded: did not inhibit plaque formation |  |  |
| CCCCCCCC/C=C\CCCCCCCC(=O)O[C@H](COC(=O)CCCCCCCCCCCCCCC)COP(=O)(O)OCC(O)CO (some centres unmarked) [POPG, palmitoyl-oleoyl-phosphatidylglycerol, reference compound] | not affected |  |  | > 10^4 |
